What was measured:
[1] = test system: Foreskin fibroblasts (HFF-1); experiment: Collagen ELISA (procollagen type I in culture media); format: cell-based; settings: Fr3 0.1 μg/mL versus EGF 1 μg/mL, HFF-1 foreskin fibroblasts, 24 h
Protocol: (§1) Figure 1 Fibroblast-activating (FA) and melanin-inhibiting (MI) domain mapping of AIMP1-derived peptide (AdP): (a) Foreskin fibroblasts were treated with EGF (1 μg/mL), AdP (0.1 μg/mL), and fragments of AdP (Fr1–Fr6; 0.1 μg/mL). After 24 h incubation, procollagen type I was determined in cultured media by ELISA; (b) after 48 h incubation, CCK8-assay was performed to monitor the proliferation of foreskin fibroblasts; (c) melanocytes, pre-treated with α-MSH (0.5 μM), were treated with albutin (At, 10 μM), AdP (1 μg/mL) and fragments of AdP (Fr1–Fr6, 1 μg/mL). After 48 h incubation, intracellular melanin was measured.
Foreskin fibroblast cells (HFF-1; 5 × 10^4 cells/well) were seeded at a 24-well culture plate. Before peptide treatment, cells were pre-incubated with serum-free DMEM media for 6 h. Cells were treated with AdP, hEGF (Sigma-Aldrich, St. Louis, MO, USA) and fragments of AdP for 24 h. After 24 h treatment, media were harvested for collagen ELISA assay. Procollagen type I in the culture media was determined by Procollagen type I ELISA kit (Takara, Kusatsu, Japan) in accordance with the manufacturer instructions. Procollagen type I amount in the media was normalized by the Procollagen type I amount of control group.

[2] = test system: Foreskin fibroblasts (HFF-1); experiment: Fibroblast proliferation assay (CCK-8); format: cell-based; settings: Fr3 0.1 μg/mL versus EGF 1 μg/mL; HFF-1 foreskin fibroblasts, 48 h, CCK-8 assay
Protocol: as §1
Foreskin fibroblast cells (HFF-1; 3 × 10^3 cells/well) were seeded into 96-well plate and cultivated. Cells were replaced with serum-free media and then treated with AdP, hEGF, and fragments of AdP for 48 h. Cell proliferation was determined CCK-8 assay (Dojindo, Kumamoto, Japan) in accordance with the manufacturer instructions. Proliferation was normalized by the proliferation of control group.

[3] = test system: keratinocytes (HaCaT cells); experiment: Cytotoxicity test (CCK-8); format: cell-based; settings: 10 or 100 μg/mL (up to 100 μg/mL), 24 h, CCK-8 assay, n = 3
Protocol: (§2) Figure 2 Non-cytotoxicity and non-immunogenicity of FA-AdP and MI-AdP: (a) To test cytotoxicity of FA-AdP and MI-AdP, keratinocytes (HaCaT cells) were incubated with doxorubicin (Dox, 10 μM), AdP (100 μg/mL), FA-AdP (10 or 100 μg/mL), and MI-AdP (10 or 100 μg/mL). After 24 h incubation, cytotoxicity was determined by CCK-8 assay; (b) for the immunogenicity test, monocytes (THP-1 cells) were used. After 12 h incubation with LPS (50 ng/mL), AdP (100 μg/mL), FA-AdP (10 or 100 μg/mL), and MI-AdP (10 or 100 μg/mL), the TNF-α level was measured in cultured media by ELISA.
(§3) The safety of FA-AdP and MI-AdP was verified in terms of cytotoxicity and immunogenicity. To test the cytotoxicity of the peptides, keratinocytes (HaCaT; 3 × 10^3 cells/well) were seeded into 96-well plate and cultivated. Cells were incubated with doxorubicin (Dox, 10 μM), AdP (100 μg/mL), FA-AdP (10 or 100 μg/mL), or MI-AdP (10 or 100 μg/mL). After 24 h incubation, cytotoxicity was determined by CCK-8 assay (Dojindo) according to the manufacturer’s manual. The immunogenicity of the peptides was evaluated by performing TNF-α ELISA. THP-1 cells (5 × 10^4 cells/well) were seeded on a 24-well plate. Cells were pre-incubated with 1% FBS containing media for 6 h. […] TNF-α amount in conditioned media was assessed by human TNF-α ELISA kit (BD Bioscience, San Jose, CA, USA) in accordance with the manufacturer instructions. […]

monocytes (THP-1 cells) = experiment: Immunogenicity test (TNF-α ELISA); format: cell-based, human; settings: 10 or 100 μg/mL, 12 h, TNF-α ELISA of cultured media, normalized to control, n = 3
Protocol: as §2, §3

Melanocytes (B16F10) = experiment: Measurement of intracellular melanin in α-MSH induced melanocytes; format: cell-based; settings: α-MSH 0.5 μM, 48 h
Protocol: as §1
Melanocytes (B16F10; 1 × 10^5 cells/well) were seeded into 6-well plate and cultivated. To induce melanin synthesis, α-MSH (0.5 μM), melanin inducer, was used. AdP and fragments of AdP were treated with α-MSH (0.5 μM) for 48 h. Intracellular melanin and tyrosinase activity were monitored as previously reported. Briefly, melanocytes (1 × 10^5 cells,) were lysed with 1 N NaOH at 70 °C for 1 h. Intracellular melanin was determined in lysed samples by 490 nm wavelength absorbance using microplate reader (Synergy 2, BioTek, Winooski, VM, USA).

Substance	collagen induction, more potent than EGF [1]	fibroblast proliferation, more potent than EGF [2]	cytotoxicity in keratinocytes [3]	TNF-α level compared with that of the control group (monocytes (THP-1 cells))	inhibition effect on melanin synthesis, higher than albutin (Melanocytes (B16F10); Fr4 1 μg/mL versus albutin 10 μM)	inhibition of melanin synthesis induced by α-MSH, compared with AdP (Melanocytes (B16F10); 1 μg/mL, intracellular melanin by absorbance at 490 nm, mean n = 3, versus AdP 1 μg/mL)
Fr3: 14–28 residue fragment of AIMP1; fibroblast-activating domain of AdP (KGAEADQIIEYLKQQ; UniProt Q12904 14-28, looked up, fragment)	15%	10%	no cytotoxicity	no significant difference	–	–
Fr4: 18–32 residue fragment of AIMP1; melanocyte-inhibiting domain of AdP (ADQIIEYLKQQVSLL; UniProt Q12904 18-32, looked up, fragment)	–	–	no cytotoxicity	no significant difference	35%	comparable inhibition
